Measured values as given in PubChem BioAssay (NCI).
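96-well plates; 48 h exposure; 5 concentrations. Endpoints by linear interpolation between flanking doses. Not reached: highest tested concentration assigned. At the GI50, growth is halved. The concentration for full growth arrest is given as TGI.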

Key:
Test in all cases: NCI tumour cell line growth inhibition, 48 h
[1] = tested on: 786-0 renal
[2] = tested on: A498 renal
[3] = tested on: A549 NSCLC
[4] = tested on: ACHN renal
[5] = tested on: BT-549 breast
[6] = tested on: CAKI-1 renal
[7] = tested on: COLO 205 colon
[8] = tested on: DU-145 prostate
[9] = tested on: EKVX NSCLC
[10] = tested on: HCC-2998 colon
[11] = tested on: HCT-15 colon
[12] = tested on: HL-60(TB) leukemia
[13] = tested on: HOP-62 NSCLC
[14] = tested on: HOP-92 NSCLC
[15] = tested on: HS 578T breast
[16] = tested on: HT29 colon
[17] = tested on: IGROV1 ovarian
[18] = tested on: K-562 leukemia
[19] = tested on: KM12 colon
[20] = tested on: LOX IMVI melanoma
[21] = tested on: M14 melanoma
[22] = tested on: MALME-3M melanoma
[23] = tested on: MCF7 breast
[24] = tested on: MDA-MB-231 breast
[25] = tested on: MDA-MB-435
[26] = tested on: MOLT-4 leukemia
[27] = tested on: NCI-H226 lung
[28] = tested on: NCI-H460 lung
[29] = tested on: NCI-H522 lung
[30] = tested on: NCI/ADR-RES ovarian
[31] = tested on: OVCAR-3 ovarian
[32] = tested on: OVCAR-4 ovarian
[33] = tested on: OVCAR-5 ovarian
[34] = tested on: OVCAR-8 ovarian
[35] = tested on: PC-3 prostate
[36] = tested on: RPMI-8226 leukemia
[37] = tested on: RXF 393 renal
[38] = tested on: SF-268 CNS
[39] = tested on: SF-295 CNS
[40] = tested on: SF-539 CNS
[41] = tested on: SK-MEL-2 melanoma
[42] = tested on: SK-MEL-28 melanoma
[43] = tested on: SK-MEL-5 melanoma
[44] = tested on: SK-OV-3 ovarian
[45] = tested on: SN12C renal
[46] = tested on: SNB-19 CNS
[47] = tested on: SNB-75 CNS
[48] = tested on: SR leukemia
[49] = tested on: SW-620 colon
[50] = tested on: T-47D breast
[51] = tested on: TK-10 renal
[52] = tested on: U251 CNS
[53] = tested on: UACC-257 melanoma
[54] = tested on: UACC-62 melanoma
[55] = tested on: UO-31 renal
[56] = tested on: CCRF-CEM leukemia
[57] = tested on: HCT-116 colon
[58] = tested on: NCI-H23 lung

## Cc1ncn(-c2ccc(/C=N/Nc3ccnc4cc(Cl)ccc34)cc2)c1C
[1]
  GI50: 1610 nM
  TGI: 3250 nM
[2]
  GI50: 6490 nM
  TGI: 20200 nM
[3]
  GI50: 1700 nM
  TGI: 3160 nM
[4]
  GI50: 1790 nM
  TGI: 3180 nM
[5]
  GI50: 1830 nM
  TGI: 3440 nM
[6]
  GI50: 1630 nM
  TGI: 2990 nM
[7]
  GI50: 1740 nM
  TGI: 3280 nM
[8]
  GI50: 1880 nM
  TGI: 3700 nM
[9]
  GI50: 3450 nM
  TGI: 18000 nM
[10]
  GI50: 1920 nM
  TGI: 3520 nM
[11]
  GI50: 1800 nM
  TGI: 3730 nM
[12]
  GI50: 1560 nM
  TGI: 3770 nM
[13]
  GI50: 1740 nM
  TGI: 3200 nM
[14]
  GI50: 1590 nM
  TGI: 3210 nM
[15]
  GI50: 2010 nM
  TGI: 4480 nM
[16]
  GI50: 1690 nM
  TGI: 3330 nM
[17]
  GI50: 1970 nM
  TGI: 3820 nM
[18]
  GI50: 2070 nM
  TGI: 8070 nM
[19]
  GI50: 2380 nM
  TGI: 5790 nM
[20]
  GI50: 2190 nM
  TGI: 3980 nM
[21]
  GI50: 1810 nM
  TGI: 3480 nM
[22]
  GI50: 1930 nM
  TGI: 3610 nM
[23]
  GI50: 1540 nM
  TGI: 3410 nM
[24]
  GI50: 2080 nM
  TGI: 3840 nM
[25]
  GI50: 1650 nM
  TGI: 3050 nM
[26]
  GI50: 1940 nM
  TGI: 5120 nM
[27]
  GI50: 2420 nM
  TGI: 6870 nM
[28]
  GI50: 1780 nM
  TGI: 3570 nM
[29]
  GI50: 1800 nM
  TGI: 3390 nM
[30]
  GI50: 2070 nM
  TGI: 5040 nM
[31]
  GI50: 1830 nM
  TGI: 3750 nM
[32]
  GI50: 1670 nM
  TGI: 3190 nM
[33]
  GI50: 3030 nM
  TGI: 10000 nM
[34]
  GI50: 1870 nM
  TGI: 3670 nM
[35]
  GI50: 1720 nM
  TGI: 3370 nM
[36]
  GI50: 1990 nM
  TGI: 4520 nM
[37]
  GI50: 1460 nM
  TGI: 2870 nM
[38]
  GI50: 1860 nM
  TGI: 3960 nM
[39]
  GI50: 1880 nM
  TGI: 3520 nM
[40]
  GI50: 1820 nM
  TGI: 3240 nM
[41]
  GI50: 1730 nM
  TGI: 3220 nM
[42]
  GI50: 1650 nM
  TGI: 3090 nM
[43]
  GI50: 2070 nM
  TGI: 4380 nM
[44]
  GI50: 1800 nM
  TGI: 3360 nM
[45]
  GI50: 1750 nM
  TGI: 3470 nM
[46]
  GI50: 1880 nM
  TGI: 3880 nM
[47]
  GI50: 1510 nM
  TGI: 2890 nM
[48]
  GI50: 1240 nM
  TGI: 4570 nM
[49]
  GI50: 1630 nM
  TGI: 3540 nM
[50]
  GI50: 1830 nM
  TGI: 3830 nM
[51]
  GI50: 1850 nM
  TGI: 3360 nM
[52]
  GI50: 1590 nM
  TGI: 2990 nM
[53]
  GI50: 1700 nM
  TGI: 3110 nM
[54]
  GI50: 1740 nM
  TGI: 3240 nM
[55]
  GI50: 1640 nM
  TGI: 3030 nM

## NC(=O)c1cccc(-n2ccc3cc(NC(=O)Nc4ccc(N5CCOCC5)c(C(F)(F)F)c4)ccc32)n1
[1]
  GI50: 670 nM
  TGI: 40600 nM
[2]
  GI50: 2010 nM
  TGI: 7320 nM
[3]
  GI50: 2640 nM
  TGI: > 100000 nM
[4]
  GI50: 2700 nM
  TGI: 8590 nM
[5]
  GI50: 1790 nM
  TGI: 5040 nM
[6]
  GI50: 1900 nM
  TGI: 9410 nM
[56]
  GI50: 741 nM
  TGI: 4740 nM
[7]
  GI50: 2060 nM
  TGI: 5510 nM
[8]
  GI50: 3010 nM
  TGI: > 100000 nM
[9]
  GI50: 2900 nM
  TGI: > 100000 nM
[10]
  GI50: 3150 nM
[57]
  GI50: 1910 nM
  TGI: 8570 nM
[11]
  GI50: 1590 nM
  TGI: 6610 nM
[12]
  GI50: 2050 nM
  TGI: 7500 nM
[13]
  GI50: 1500 nM
  TGI: 4100 nM
[14]
  GI50: 2100 nM
  TGI: 4820 nM
[15]
  GI50: 835 nM
  TGI: 4830 nM
[16]
  GI50: 2340 nM
  TGI: > 100000 nM
[17]
  GI50: 2250 nM
  TGI: 6940 nM
[18]
  GI50: 946 nM
  TGI: > 100000 nM
[19]
  GI50: 397 nM
  TGI: 4410 nM
[21]
  GI50: 2250 nM
  TGI: 6910 nM
[22]
  GI50: 1590 nM
  TGI: 4340 nM
[23]
  GI50: 124 nM
  TGI: 3160 nM
[24]
  GI50: 2560 nM
  TGI: 7960 nM
[25]
  GI50: 2030 nM
  TGI: 7190 nM
[26]
  GI50: 1650 nM
  TGI: 9010 nM
[27]
  GI50: 1740 nM
  TGI: 6600 nM
[28]
  GI50: 2220 nM
  TGI: 6510 nM
[29]
  GI50: 2070 nM
  TGI: 7820 nM
[30]
  GI50: 2650 nM
  TGI: 35400 nM
[31]
  GI50: 1990 nM
  TGI: 5370 nM
[32]
  GI50: 2250 nM
  TGI: 7090 nM
[33]
  GI50: 2950 nM
  TGI: > 100000 nM
[34]
  GI50: 1480 nM
  TGI: 8380 nM
[35]
  GI50: 1670 nM
  TGI: 6200 nM
[36]
  GI50: 505 nM
  TGI: 2290 nM
[37]
  GI50: 245 nM
  TGI: 743 nM
[38]
  GI50: 2670 nM
  TGI: 8940 nM
[39]
  GI50: 419 nM
  TGI: 2310 nM
[40]
  GI50: 616 nM
  TGI: 2790 nM
[41]
  GI50: 2110 nM
  TGI: 5090 nM
[42]
  GI50: 2040 nM
  TGI: 8830 nM
[43]
  GI50: 1510 nM
  TGI: 3470 nM
[44]
  GI50: 2730 nM
  TGI: 8950 nM
[45]
  GI50: 2190 nM
  TGI: 7360 nM
[46]
  GI50: 1860 nM
  TGI: 6550 nM
[47]
  GI50: 690 nM
  TGI: 4010 nM
[49]
  GI50: 2870 nM
  TGI: > 100000 nM
[50]
  GI50: 463 nM
  TGI: 3020 nM
[51]
  GI50: 2750 nM
  TGI: 8290 nM
[52]
  GI50: 1250 nM
  TGI: 12100 nM
[53]
  GI50: 2900 nM
  TGI: 9040 nM
[54]
  GI50: 1650 nM
  TGI: 4140 nM
[55]
  GI50: 1840 nM
  TGI: 5210 nM

## COc1cc2c3c(n(CCCN4CCCCC4)c(=O)c2cc1OC)-c1cc2c(cc1C3=O)OCO2
[56]
  GI50: 130 nM
  TGI: 988 nM
[7]
  GI50: 1110 nM
  TGI: 2430 nM
[8]
  GI50: 1370 nM
  TGI: 2680 nM
[10]
  GI50: 1220 nM
  TGI: 2470 nM
[57]
  GI50: 150 nM
  TGI: 309 nM
[11]
  GI50: 1260 nM
  TGI: 2600 nM
[12]
  GI50: 341 nM
  TGI: 965 nM
[15]
  GI50: 2070 nM
  TGI: 4770 nM
[16]
  GI50: 1280 nM
  TGI: 2670 nM
[18]
  GI50: 179 nM
  TGI: 499 nM
[19]
  GI50: 1510 nM
  TGI: 2850 nM
[20]
  GI50: 716 nM
  TGI: 2150 nM
[21]
  GI50: 1590 nM
  TGI: 3050 nM
[22]
  GI50: 1650 nM
  TGI: 3450 nM
[23]
  GI50: 145 nM
  TGI: 2050 nM
[24]
  GI50: 1210 nM
  TGI: 2590 nM
[25]
  GI50: 1660 nM
  TGI: 3220 nM
[26]
  GI50: 42.3 nM
  TGI: 2020 nM
[27]
  GI50: 1540 nM
  TGI: 3690 nM
[58]
  GI50: 1530 nM
  TGI: 3010 nM
[29]
  GI50: 932 nM
  TGI: 2460 nM
[31]
  GI50: 1630 nM
  TGI: 3020 nM
[33]
  GI50: 1840 nM
  TGI: 3290 nM
[34]
  GI50: 1680 nM
  TGI: 4170 nM
[35]
  GI50: 1260 nM
  TGI: 2690 nM
[36]
  GI50: 333 nM
  TGI: 1470 nM
[40]
  GI50: 1460 nM
  TGI: 2830 nM
[41]
  GI50: 12400 nM
  TGI: 28300 nM
[43]
  GI50: 1600 nM
  TGI: 3010 nM
[45]
  GI50: 1590 nM
  TGI: 3050 nM
[48]
  GI50: 143 nM
  TGI: 893 nM
[49]
  GI50: 193 nM
  TGI: 1350 nM
[50]
  GI50: 1580 nM
  TGI: 3560 nM
[53]
  GI50: 1760 nM
  TGI: 3960 nM
[54]
  GI50: 1380 nM
  TGI: 2830 nM
